This passage reports IC50 results from BindingDB's records for doi:10.1021/acs.jmedchem.6b01851 (Amgen, 2017).

Sequence of Sodium channel protein type 5 subunit alpha (Q14524 whole entry): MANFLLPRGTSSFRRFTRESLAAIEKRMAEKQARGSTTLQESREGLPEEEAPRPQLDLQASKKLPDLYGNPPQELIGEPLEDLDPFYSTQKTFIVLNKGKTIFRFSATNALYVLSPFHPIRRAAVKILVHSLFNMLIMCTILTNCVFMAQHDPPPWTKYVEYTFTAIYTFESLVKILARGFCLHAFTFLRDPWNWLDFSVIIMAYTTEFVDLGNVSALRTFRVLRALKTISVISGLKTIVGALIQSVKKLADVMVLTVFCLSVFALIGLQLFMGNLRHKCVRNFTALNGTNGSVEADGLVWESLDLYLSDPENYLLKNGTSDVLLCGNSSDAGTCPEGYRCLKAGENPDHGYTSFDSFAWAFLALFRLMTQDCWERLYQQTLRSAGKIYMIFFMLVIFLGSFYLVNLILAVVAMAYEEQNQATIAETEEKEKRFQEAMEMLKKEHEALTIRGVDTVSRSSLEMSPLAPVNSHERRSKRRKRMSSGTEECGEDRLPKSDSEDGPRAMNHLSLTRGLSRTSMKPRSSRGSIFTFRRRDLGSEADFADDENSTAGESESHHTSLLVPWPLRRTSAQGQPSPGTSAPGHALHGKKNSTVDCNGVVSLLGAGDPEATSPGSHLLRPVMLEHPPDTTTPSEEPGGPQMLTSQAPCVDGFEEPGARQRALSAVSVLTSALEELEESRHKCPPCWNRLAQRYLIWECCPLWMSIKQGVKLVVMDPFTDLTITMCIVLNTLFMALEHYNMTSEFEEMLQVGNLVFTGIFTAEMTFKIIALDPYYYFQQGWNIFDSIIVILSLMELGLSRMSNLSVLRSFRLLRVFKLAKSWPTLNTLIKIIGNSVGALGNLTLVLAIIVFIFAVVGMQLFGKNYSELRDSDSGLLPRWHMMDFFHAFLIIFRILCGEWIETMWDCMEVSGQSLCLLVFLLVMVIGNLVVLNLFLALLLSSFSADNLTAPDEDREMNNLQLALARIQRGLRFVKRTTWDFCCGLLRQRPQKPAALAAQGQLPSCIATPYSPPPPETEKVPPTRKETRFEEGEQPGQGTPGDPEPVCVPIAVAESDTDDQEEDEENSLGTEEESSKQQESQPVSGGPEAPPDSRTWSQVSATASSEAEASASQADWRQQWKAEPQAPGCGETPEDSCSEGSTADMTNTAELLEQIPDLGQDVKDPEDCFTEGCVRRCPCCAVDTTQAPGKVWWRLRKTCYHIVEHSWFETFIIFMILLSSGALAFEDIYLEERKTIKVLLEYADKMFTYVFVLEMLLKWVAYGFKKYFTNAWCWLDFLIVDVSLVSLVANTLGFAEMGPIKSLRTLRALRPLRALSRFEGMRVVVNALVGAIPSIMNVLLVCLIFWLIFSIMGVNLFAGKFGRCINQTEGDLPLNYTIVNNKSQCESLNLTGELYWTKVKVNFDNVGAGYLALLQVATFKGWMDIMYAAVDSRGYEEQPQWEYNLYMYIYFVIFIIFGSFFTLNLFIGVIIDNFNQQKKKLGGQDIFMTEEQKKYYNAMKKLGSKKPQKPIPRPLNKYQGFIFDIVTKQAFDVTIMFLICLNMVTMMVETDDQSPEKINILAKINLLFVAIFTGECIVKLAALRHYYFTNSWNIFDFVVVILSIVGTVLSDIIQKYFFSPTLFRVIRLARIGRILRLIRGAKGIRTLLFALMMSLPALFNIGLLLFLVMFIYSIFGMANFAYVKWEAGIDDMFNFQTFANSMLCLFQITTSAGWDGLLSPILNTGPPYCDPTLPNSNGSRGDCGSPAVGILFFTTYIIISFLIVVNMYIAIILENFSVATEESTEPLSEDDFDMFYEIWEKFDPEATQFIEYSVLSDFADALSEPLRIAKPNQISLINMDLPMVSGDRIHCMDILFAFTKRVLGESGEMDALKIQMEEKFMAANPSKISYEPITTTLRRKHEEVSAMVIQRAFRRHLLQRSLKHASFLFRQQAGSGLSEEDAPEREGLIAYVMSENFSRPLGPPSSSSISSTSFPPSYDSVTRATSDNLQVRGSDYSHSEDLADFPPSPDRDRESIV

The test addresses Sodium channel protein type 5 subunit alpha (Homo sapiens, UniProt Q14524). The test can be described thus: Inhibition of human Nav1.5 expressed in HEK293 cells assessed as reduction in peak inward current by ionworks quattro electrophysiology assay.
For `COc1cc(-c2cccc(F)c2)c(Cl)cc1-c1ncc(O)c2cc(S(=O)(=O)Nc3ccon3)ccc12` [1-(2-chloro-3'-fluoro-5-methoxy-4-biphenylyl)-4-hydroxy-N-3-isoxazolyl-6-isoquinolinesulfonamide], the IC50 was greater than 10 µM.
The same measure for `COc1cc(-c2cccc(F)c2)c(Cl)cc1-c1nccc2cc(S(=O)(=O)Nc3ncon3)ccc12` [1-(2-chloro-3'-fluoro-5-methoxy-4-biphenylyl)-N-1,2,4-oxadiazol-3-yl-6-isoquinolinesulfonamide]: greater than 10 µM; for `COc1cc(-c2cccc(F)c2)c(Cl)cc1-c1nn(C)c(=O)c2cc(S(=O)(=O)Nc3ccon3)ccc12` [1-(2-chloro-3'-fluoro-5-methoxy-4-biphenylyl)-N-3-isoxazolyl-3-methyl-4-oxo-3,4-dihydro-6-phthalazinesulfonamide]: greater than 10 µM.
The same measure for `COc1cc(-c2cccc(F)c2)c(Cl)cc1-c1nccc2cc(S(=O)(=O)Nc3cccnn3)ccc12` [1-(2-chloro-3'-fluoro-5-methoxy-4-biphenylyl)-N-3-pyridazinyl-6-isoquinolinesulfonamide]: greater than 10 µM; for `COc1cc(-c2cccc(Cl)c2)c(F)cc1-c1nccc2cc(S(=O)(=O)Nc3ccon3)ccc12` [1-(3'-chloro-2-fluoro-5-methoxy-4-biphenylyl)-N-3-isoxazolyl-6-isoquinolinesulfonamide]: greater than 10 µM.
The result for `COc1cc(-c2cccc(F)c2)c(Cl)cc1-c1ncnc2cc(S(=O)(=O)Nc3ccon3)ccc12` [4-(2-chloro-3'-fluoro-5-methoxy-4-biphenylyl)-N-3-isoxazolyl-7-quinazolinesulfonamide] reads greater than 10 µM.
